Laboratory results from US20240101557A1, “FUSED TRICYCLIC COMPOUNDS AS INHIBITORS OF KRAS G12V MUTANTS” (INCYTE CORPORATION, priority 2022, published 2024).

Legend:
KRAS G12D = KRAS G12D (Homo sapiens, UniProt P01116, G12D); test: GDP-GTP exchange assay (bodipy-GDP for GppNHp, with SOS1), KRAS G12D; format: biochemical; settings: bodipy-loaded KRAS G12D 2.5 nM, 4 h pre-incubation, 2 h after GppNHp/SOS1; read-out: G12D_exchange
Description: (§1) The inhibitor potency of the exemplified compounds was determined in a fluorescence based guanine nucleotide exchange assay, which measures the exchange of bodipy-GDP (fluorescently labeled GDP) for GppNHp (Non-hydrolyzable GTP analog) to generate the active state of KRAS in the presence of SOS1 (guanine nucleotide exchange factor). Inhibitors were serially diluted in DMSO and a volume of 0.1 μL was transferred to the wells of a black low volume 384-well plate. 5 μL/well volume of bodipy-loaded KRAS G12D diluted to 2.5 nM in assay buffer (25 mM Hepes pH 7.5, 50 mM NaCl, 10 mM MgCl2 and 0.01% Brij-35) was added to the plate and pre-incubated with inhibitor for 4 h at ambient temperature. Appropriate controls (enzyme with no inhibitor or with a G12D inhibitor) were included on the plate. The exchange was initiated by the addition of a 5 μL/well volume containing 1 mM GppNHp and 300 nM SOS1 in assay buffer. The 10 μL/well reaction concentration of the bodipy-loaded KRAS G12D, GppNHp, and SOS1 were 2.5 nM, 500 uM, and 150 nM, respectively. The reaction plates were incubated at ambient temperature for 2 h, a time estimated for complete GDP-GTP exchange in the absence of inhibitor. For the KRAS G12V mutant, similar guanine nucleotide exchange assays were used with 2.5 nM as final concentration for the bodipy loaded KRAS proteins and 3 h incubation after adding GppNHp-SOS1 mixture. A cyclic peptide described to selectively bind G12D mutant (Sakamoto et al., BBRC 484.3 (2017), 605-611) or internal compounds with confirmed binding were used as positive controls in the assay plates. Fluorescence intensities were measured on a PheraStar plate reader instrument (BMG Labtech) with excitation at 485 nm and emission at 520 nm.
(§2) Either GraphPad prism or Genedata Screener SmartFit was used to analyze the data. The IC50 values were derived by fitting the data to a four parameter logistic equation producing a sigmoidal dose-response curve with a variable Hill coefficient.
(§3) The symbol “†” indicates IC50≤100 nM, “††” indicates IC50>100 nM but ≤1 μM; and “†††” indicates IC50 is >1 μM but ≤5 μM, “††††” indicates IC50 is >5 μM but ≤10 μM. “NA” indicates IC50 not available.

KRAS G12V mutant = KRAS G12V mutant (Homo sapiens, UniProt P01116, G12V); test: GDP-GTP exchange assay (bodipy-GDP for GppNHp, with SOS1), KRAS G12V; format: biochemical; settings: bodipy-loaded KRAS G12V 2.5 nM, 3 h incubation after GppNHp-SOS1; read-out: G12V_ exchange
Sequence of KRAS G12V mutant (P01116 1-188 isoform P01116-2 G12V): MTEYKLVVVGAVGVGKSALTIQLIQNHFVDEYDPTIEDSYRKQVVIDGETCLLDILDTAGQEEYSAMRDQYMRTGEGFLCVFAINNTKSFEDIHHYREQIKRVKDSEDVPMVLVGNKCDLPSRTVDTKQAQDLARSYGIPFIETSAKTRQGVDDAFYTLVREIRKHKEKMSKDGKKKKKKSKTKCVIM
Description: as §1, §2, §3

KRAS G12V = test: G12V_cell (cellular assay on KRAS G12V cells, method not named in Table 1); format: cell-based; settings: cell line and readout not stated
Description: MIA PaCa-2 (KRAS G12C; ATCC® CRL-1420), NCI-H358 (KRAS G12C; ATCC® CRL-5807), A427 (KRAS G12D; ATCC® HTB53), HPAFII (KRAS G12D; ATCC® CRL-1997), YAPC (KRAS G12V; DSMZ ACC382), SW480 (KRAS G12V; ATCC® CRL-228) and NCI-H838 (KRAS WT; ATCC® CRL-5844) cells are cultured in RPMI 1640 media supplemented with 10% FBS (Gibco/Life Technologies). Eight hundred cells per well in RPMI 1640 media supplemented with 2% FBS are seeded into white, clear bottomed 384-well Costar tissue culture plates containing 50 nL dots of test compounds (final concentration is a 1:500 dilution, with a final concentration in 0.2% DMSO). Plates are incubated for 3 days at […], 5% CO2. At the end of the assay, 25 ul/well of CellTiter-Glo reagent (Promega) is added. Luminescence is read after 15 min. with a PHERAstar (BMG). Data are analyzed in Genedata Screener using SmartFit for IC50 values.
MIA PaCa-2 (KRAS G12C; ATCC® CRL-1420), NCI-H358 (KRAS G12C; ATCC® CRL-5807), A427 (KRAS G12D; ATCC® HTB53), HPAFII (KRAS G12D; ATCC® CRL-1997), YAPC (KRAS G12V; DSMZ ACC382), SW480 (KRAS G12V; ATCC® CRL-228) and NCI-H838 (KRAS WT; ATCC® CRL-5844) cells are purchased from ATCC and maintained in RPMI 1640 media supplemented with 10% FBS (Gibco/Life Technologies). The cells are plated at 5000 cells per well (8 uL) into Greiner 384-well low volume, flat-bottom, and tissue culture treated white plates and incubated overnight at […], 5% CO2. The next morning, test compound stock solutions are diluted in media at 3× the final concentration and 4 uL are added to the cells, with a final concentration of 0.1% of DMSO. The cells are incubated with the test compounds for 4 h (G12C and G12V) or 2 hrs (G12D) at 37° C., 5% CO2. Four uL of 4× lysis buffer with blocking reagent (Cisbio) are added to each well and plates are rotated gently (300 rpm) for 30 min. at r.t. Four uL per well of Cisbio anti Phospho-ERK ½ d2 is mixed with anti Phospho-ERK ½ Cryptate (1:1), and added to each well, incubated overnight in the dark at r.t. Plates are read on the Pherastar plate reader at 665 nm and 620 nm wavelengths. Data are analyzed in Genedata Screener using SmartFit for IC50 values.

Measured: IC50

Sequence of KRAS G12D (P01116 1-188 isoform P01116-2 G12D): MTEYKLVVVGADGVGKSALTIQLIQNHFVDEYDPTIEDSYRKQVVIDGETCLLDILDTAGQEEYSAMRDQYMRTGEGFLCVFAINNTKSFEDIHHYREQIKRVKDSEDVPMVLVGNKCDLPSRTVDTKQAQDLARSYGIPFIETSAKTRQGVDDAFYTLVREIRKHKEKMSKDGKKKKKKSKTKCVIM

CC(=O)N1CCC[C@@H]1c1cc2c(O[C@@H](C)[C@@H]3CCCN3C)nc3c(F)c(-c4cccc(Cl)c4Cl)c(CCC#N)cc3c2n1[C@H]1[C@H]2CN[C@@H]1C2 [Example 1, 3-(2-((R)-1-Acetylpyrrolidin-2-yl)-1-((1R,4R,5S)-2-azabicyclo[2.1.1]hexan-5-yl)-7-(2,3-dichlorophenyl)-6-fluoro-4-((S)-1-((S)-1-methylpyrrolidin-2-yl)ethoxy)-1H-pyrrolo[3,2-c]quinolin-8-yl)propanenitrile]
≤ 100 nM: all assays above

C[C@H](Oc1nc2c(F)c(-c3cccc4ccc(F)cc34)c(CCC#N)cc2c2c1cc(-c1cnn(C)c1C(=O)N(C)C)n2[C@H]1[C@H]2CN[C@@H]1C2)[C@@H]1CCCN1C [Example 2, 4-(1-((1R,4R,5S)-2-Azabicyclo[2.1.1]hexan-5-yl)-8-(2-cyanoethyl)-6-fluoro-7-(7-fluoronaphthalen-1-yl)-4-((S)-1-((S)-1-methylpyrrolidin-2-yl)ethoxy)-1H-pyrrolo[3,2-c]quinolin-2-yl)-N,N,1-trimethyl-1H-pyrazole-5-carboxamide]
≤ 100 nM: all assays above

CC(=O)N1CCC[C@@H]1c1c(Cl)c2c(O[C@@H](C)[C@@H]3CCCN3C)nc3c(F)c(-c4cccc(Cl)c4Cl)c(CCC#N)cc3c2n1[C@H]1[C@H]2CN[C@@H]1C2 [Example 3, 3-(2-((R)-1-Acetylpyrrolidin-2-yl)-1-((1R,4R,5S)-2-azabicyclo[2.1.1]hexan-5-yl)-3-chloro-7-(2,3-dichlorophenyl)-6-fluoro-4-((S)-1-((S)-1-methylpyrrolidin-2-yl)ethoxy)-1H-pyrrolo[3,2-c]quinolin-8-yl)propanenitrile]
≤ 100 nM: all assays above

CC(=O)N1CCC[C@@H]1c1cc2c(O[C@@H](C)[C@@H]3CCCN3C)nc3c(F)c(-c4cccc5c4C(C#N)CCC5)c(C)cc3c2n1[C@H]1[C@H]2CN[C@@H]1C2 (stereo partly drawn) [Example 4, 8-(2-((R)-1-Acetylpyrrolidin-2-yl)-1-((1R,4R,5S)-2-azabicyclo[2.1.1]hexan-5-yl)-6-fluoro-8-methyl-4-((S)-1-((S)-1-methylpyrrolidin-2-yl)ethoxy)-1H-pyrrolo[3,2-c]quinolin-7-yl)-1,2,3,4-tetrahydronaphthalene-1-carbonitrile]
≤ 100 nM: all assays above

CC(=O)N1CCC[C@@H]1c1cc2c(O[C@@H](C)[C@@H]3CCCN3C)nc3c(F)c(-c4cccc5ncc(F)cc45)c(CCC#N)cc3c2n1[C@H]1[C@H]2CN[C@@H]1C2 [Example 5, 3-(2-((R)-1-Acetylpyrrolidin-2-yl)-1-((1R,4R,5S)-2-azabicyclo[2.1.1]hexan-5-yl)-6-fluoro-7-(3-fluoroquinolin-5-yl)-4-((S)-1-((S)-1-methylpyrrolidin-2-yl)ethoxy)-1H-pyrrolo[3,2-c]quinolin-8-yl)propanenitrile]
≤ 100 nM: all assays above

COC(=O)N1C[C@@H](Oc2ccccn2)C[C@@H]1c1cc2c(O[C@@H](C)[C@@H]3CCCN3C)nc3c(F)c(-c4cccc(Cl)c4Cl)c(CCC#N)cc3c2n1[C@H]1[C@H]2CN[C@@H]1C2 [Example 6, Methyl (2R,4S)-2-(1-((1R,4R,5S)-2-azabicyclo[2.1.1]hexan-5-yl)-8-(2-cyanoethyl)-7-(2,3-dichlorophenyl)-6-fluoro-4-((S)-1-((S)-1-methylpyrrolidin-2-yl)ethoxy)-1H-pyrrolo[3,2-c]quinolin-2-yl)-4-(pyridin-2-yloxy)pyrrolidine-1-carboxylate]
≤ 100 nM: all assays above

CC(=O)N1[C@@H](c2cc3c(O[C@@H](C)[C@@H]4CCCN4C)nc4c(F)c(-c5cccc6c5C(C#N)CCC6)c(C)cc4c3n2[C@H]2[C@H]3CN[C@@H]2C3)C[C@@H]2C[C@@H]21 (stereo partly drawn) [Example 7, 8-(2-((1S,3R,5S)-2-Acetyl-2-azabicyclo[3.1.0]hexan-3-yl)-1-((1R,4R,5S)-2-azabicyclo[2.1.1]hexan-5-yl)-6-fluoro-8-methyl-4-((S)-1-((S)-1-methylpyrrolidin-2-yl)ethoxy)-1H-pyrrolo[3,2-c]quinolin-7-yl)-1,2,3,4-tetrahydronaphthalene-1-carbonitrile]
≤ 100 nM: all assays above

C[C@H](Oc1nc2c(F)c(-c3cccc(Cl)c3Cl)c(CCC#N)cc2c2c1cc([C@H]1C[C@H](OC(F)F)CN1C(=O)C1CC1)n2[C@H]1[C@H]2CN[C@@H]1C2)[C@@H]1CCCN1C [Example 8, 3-(1-((1R,4R,5S)-2-Azabicyclo[2.1.1]hexan-5-yl)-2-((2R,4S)-1-(cyclopropanecarbonyl)-4-(difluoromethoxy)pyrrolidin-2-yl)-7-(2,3-dichlorophenyl)-6-fluoro-4-((S)-1-((S)-1-methylpyrrolidin-2-yl)ethoxy)-1H-pyrrolo[3,2-c]quinolin-8-yl)propanenitrile]
≤ 100 nM: all assays above

C[C@H](Oc1nc2c(F)c(-c3cccc(Cl)c3Cl)c(CCC#N)cc2c2c1cc([C@H]1C[C@H](Oc3ncccc3F)CN1C(=O)C1CC1)n2[C@H]1[C@H]2CN[C@@H]1C2)[C@@H]1CCCN1C [Example 9, 3-(1-((1R,4R,5S)-2-Azabicyclo[2.1.1]hexan-5-yl)-2-((2R,4S)-1-(cyclopropanecarbonyl)-4-((3-fluoropyridin-2-yl)oxy)pyrrolidin-2-yl)-7-(2,3-dichlorophenyl)-6-fluoro-4-((S)-1-((S)-1-methylpyrrolidin-2-yl)ethoxy)-1H-pyrrolo[3,2-c]quinolin-8-yl)propanenitrile]
≤ 100 nM: all assays above

C[C@H](Oc1nc2c(F)c(-c3cccc(Cl)c3Cl)c(CCC#N)cc2c2c1cc([C@H]1C[C@H](F)CN1C(=O)C1CC1)n2[C@H]1[C@H]2CN[C@@H]1C2)[C@@H]1CCCN1C [Example 10, 3-(1-((1R,4R,5S)-2-Azabicyclo[2.1.1]hexan-5-yl)-2-((2R,4S)-1-(cyclopropanecarbonyl)-4-fluoropyrrolidin-2-yl)-7-(2,3-dichlorophenyl)-6-fluoro-4-((S)-1-((S)-1-methylpyrrolidin-2-yl)ethoxy)-1H-pyrrolo[3,2-c]quinolin-8-yl)propanenitrile]
≤ 100 nM: all assays above
